Experimental data reported in EP0691985B1, “[…]” (MERRELL PHARMACEUTICALS INC., priority 1993, dated 1994).

Experiments:
ET receptors = test: Effect of ET-l on phosphatidyl inositol turnover (IPl formation) in rat brain slices, counter-test; assay type: cell-based; details: rat striatum slices, ETl 10^-6M
Protocol: The buffer was changed every 15 minutes.

[1] = test system: Endothelin Converting Enzyme (ECE); details: read-out: IC50 (concentration inhibiting 50% of the effect of pro-ETl 10^-6M); rat striatum slices; pro-ET-l 10^-6M; [3H]-IPl accumulation; determined graphically
Excerpt: In vitro Endothelin Converting Enzyme (ECE) assay via IPl formation in rat brain slices. This assay measures the enzymatic activity responsible for the generation of functional ET-l from pro-ET-l by measuring the stimulation of phosphatidyl inositol turnover as a marker of ET-l effects:
The precursor of ET-l, i.e., proendothelin-l (pro-ET-l), is unable to stimulate the phosphatidyl inositol turnover unless it is cleaved by a specific phosphoramidon sensitive protease, i.e., endothelin converting enzyme (ECE). […] For this assay, an adaptation of the procedure of Brown et al., J. Neurochem., 42:1379, 1984, was used.
The exact concentration of these solutions was checked by absorbance spectrophotometry at 280 nm, using the equation C = A / L ε280 [formula] (with C the concentration of the peptide in solution, A the absorbance measured, L the optical path length of the solution and ε280 the extinction coefficient of the peptide in solution (8370 and 7025 M^-1cm^-1 for pro-ET-l and ET-l, respectively)]. The stock solutions were then aliquoted, lyophilized and stored at -20°C. The peptides were redissolved and diluted in water on the day of the experiment (peptides for other tests also prepared by this method ). […]
In these conditions the stimulation of phosphatidyl inositol turnover by pro-ET-l can be assessed by measuring the amount of accumulated [^3H]-IPl.

SMILES: CC(C)C[C@H](NP(=O)(O)O[C@@H]1O[C@@H](C)[C@H](O)[C@@H](O)[C@H]1O)C(=O)N[C@@H](Cc1c[nH]c2ccccc12)C(=O)O [phosphoramidon]
- IC50 (ET receptors; [3H]-IPl accumulation, determined graphically, read-out: RC50 (concentration reducing 50% of the effect of ETl 10^-6M)): > 30 µM
- % of maximal reduction observed (ET receptors; recorded when RC50 >30 µM (up to 3 × 10^-5M)): 75 ± 9%
- IC50 [1]: 6.4 ± 1.1 µM
